ChEMBL document CHEMBL3044654, “Sensitivity of four isolates of Clonostachys rosea to pesticides used in the strawberry crop in Brazil” (2012)

Legend:
Format in all cases: functional
Clonostachys rosea [1] = test: Toxicity against Bionectria ochroleuca I19 assessed as inhibition of mycelial growth at 0.003 to 0.020 mg/ml measured every 24 hr intervals over 192 hr
Clonostachys rosea [2] = test: Toxicity against Bionectria ochroleuca assessed as inhibition of mycelial growth at 0.003 to 0.020 ug/ml measured every 24 hr intervals over 192 hr
Clonostachys rosea [3] = test: Toxicity against Bionectria ochroleuca I62 assessed as inhibition of mycelial growth at 0.003 to 0.020 mg/ml measured every 24 hr intervals over 192 hr
Clonostachys rosea [4] = test: Toxicity against Bionectria ochroleuca I60 assessed as inhibition of mycelial growth at 0.003 to 0.020 mg/ml measured every 24 hr intervals over 192 hr
Clonostachys rosea [5] = test: Toxicity against Bionectria ochroleuca assessed as inhibition of conidial germination at 0.003 to 0.020 ug/ml measured every 24 hr intervals over 192 hr
Clonostachys rosea [6] = test: Toxicity against Bionectria ochroleuca I61 assessed as inhibition of mycelial growth at 0.003 to 0.020 mg/ml measured every 24 hr intervals over 192 hr
Clonostachys rosea [7] = test: Toxicity against Bionectria ochroleuca I60 assessed as inhibition of mycelial growth at 0.3 to 1.8 mg/ml measured every 24 hr intervals over 192 hr
Clonostachys rosea [8] = test: Toxicity against Bionectria ochroleuca I62 assessed as inhibition of mycelial growth at 0.3 to 1.8 mg/ml measured every 24 hr intervals over 192 hr
Clonostachys rosea [9] = test: Toxicity against Bionectria ochroleuca assessed as inhibition of mycelial growth at 0.3 to 1.8 mg/ml measured every 24 hr intervals over 192 hr
Clonostachys rosea [10] = test: Toxicity against Bionectria ochroleuca I19 assessed as inhibition of mycelial growth at 0.3 to 1.8 mg/ml measured every 24 hr intervals over 192 hr
Clonostachys rosea [11] = test: Toxicity against Bionectria ochroleuca assessed as inhibition of conidial germination at 0.3 to 1.8 mg/ml measured every 24 hr intervals over 192 hr
Clonostachys rosea [12] = test: Toxicity against Bionectria ochroleuca I61 assessed as inhibition of mycelial growth at 0.3 to 1.8 mg/ml measured every 24 hr intervals over 192 hr
Clonostachys rosea [13] = test: Toxicity against Bionectria ochroleuca I61 assessed as inhibition of mycelial growth at 0.048 to 0.292 mg/ml measured every 24 hr intervals over 192 hr
Clonostachys rosea [14] = test: Toxicity against Bionectria ochroleuca I19 assessed as inhibition of mycelial growth at 0.048 to 0.292 mg/ml measured every 24 hr intervals over 192 hr
Clonostachys rosea [15] = test: Toxicity against Bionectria ochroleuca assessed as inhibition of mycelial growth at 0.048 to 0.292 ug/ml measured every 24 hr intervals over 192 hr
Clonostachys rosea [16] = test: Toxicity against Bionectria ochroleuca I60 assessed as inhibition of conidial germination at 0.048 to 0.292 mg/ml measured every 24 hr intervals over 192 hr
Clonostachys rosea [17] = test: Toxicity against Bionectria ochroleuca I60 assessed as inhibition of mycelial growth at 0.048 to 0.292 mg/ml measured every 24 hr intervals over 192 hr
Clonostachys rosea [18] = test: Toxicity against Bionectria ochroleuca I61 assessed as inhibition of conidial germination at 0.048 to 0.292 mg/ml measured every 24 hr intervals over 192 hr
Clonostachys rosea [19] = test: Toxicity against Bionectria ochroleuca I62 assessed as inhibition of mycelial growth at 0.048 to 0.292 mg/ml measured every 24 hr intervals over 192 hr
Clonostachys rosea [20] = test: Toxicity against Bionectria ochroleuca assessed as inhibition of conidial germination at 0.048 to 0.292 ug/ml measured every 24 hr intervals over 192 hr
Clonostachys rosea [21] = test: Toxicity against Bionectria ochroleuca I19 assessed as inhibition of conidial germination at 0.048 to 0.292 mg/ml measured every 24 hr intervals over 192 hr
Clonostachys rosea [22] = test: Toxicity against Bionectria ochroleuca I62 assessed as inhibition of conidial germination at 0.048 to 0.292 mg/ml measured every 24 hr intervals over 192 hr
Clonostachys rosea [23] = test: Toxicity against Bionectria ochroleuca assessed as inhibition of conidial germination at 0.001 to 0.009 ug/ml
Clonostachys rosea [24] = test: Toxicity against Bionectria ochroleuca assessed as inhibition of mycelial growth at 0.001 to 0.009 ug/ml
Clonostachys rosea [25] = test: Toxicity against Bionectria ochroleuca assessed as inhibition of mycelial growth at 0.005 to 0.033 ug/ml
Clonostachys rosea [26] = test: Toxicity against Bionectria ochroleuca assessed as inhibition of conidial germination at 0.005 to 0.033 ug/ml
Clonostachys rosea [27] = test: Toxicity against Bionectria ochroleuca assessed as inhibition of mycelial growth at 0.9 to 1.13 mg/ml measured every 24 hr intervals over 192 hr
Clonostachys rosea [28] = test: Toxicity against Bionectria ochroleuca assessed as inhibition of conidial germination at 0.9 to 1.13 mg/ml measured every 24 hr intervals over 192 hr
Clonostachys rosea [29] = test: Toxicity against Bionectria ochroleuca I19 assessed as inhibition of mycelial growth at 0.25 to 1.50 mg/ml measured every 24 hr intervals over 192 hr
Clonostachys rosea [30] = test: Toxicity against Bionectria ochroleuca I62 assessed as inhibition of conidial germination at 0.25 to 1.50 mg/ml measured every 24 hr intervals over 192 hr
Clonostachys rosea [31] = test: Toxicity against Bionectria ochroleuca I60 assessed as inhibition of mycelial growth at 0.25 to 1.50 mg/ml measured every 24 hr intervals over 192 hr
Clonostachys rosea [32] = test: Toxicity against Bionectria ochroleuca I62 assessed as inhibition of mycelial growth at 0.25 to 1.50 mg/ml measured every 24 hr intervals over 192 hr
Clonostachys rosea [33] = test: Toxicity against Bionectria ochroleuca assessed as inhibition of mycelial growth at 0.25 to 1.50 mg/ml measured every 24 hr intervals over 192 hr
Clonostachys rosea [34] = test: Toxicity against Bionectria ochroleuca I61 assessed as inhibition of conidial germination at 0.25 to 1.50 mg/ml measured every 24 hr intervals over 192 hr
Clonostachys rosea [35] = test: Toxicity against Bionectria ochroleuca I61 assessed as inhibition of mycelial growth at 0.25 to 1.50 mg/ml measured every 24 hr intervals over 192 hr
Clonostachys rosea [36] = test: Toxicity against Bionectria ochroleuca assessed as inhibition of conidial germination at 0.25 to 1.50 mg/ml measured every 24 hr intervals over 192 hr
Clonostachys rosea [37] = test: Toxicity against Bionectria ochroleuca assessed as inhibition of conidial germination at 0.12 to 0.75 mg/ml measured every 24 hr intervals over 192 hr
Clonostachys rosea [38] = test: Toxicity against Bionectria ochroleuca assessed as inhibition of mycelial growth at 0.12 to 0.75 mg/ml measured every 24 hr intervals over 192 hr
Clonostachys rosea [39] = test: Toxicity against Bionectria ochroleuca assessed as inhibition of conidial germination at 0.011 to 0.066 mg/ml
Clonostachys rosea [40] = test: Toxicity against Bionectria ochroleuca assessed as inhibition of mycelial growth at 0.011 to 0.066 mg/ml
Clonostachys rosea [41] = test: Toxicity against Bionectria ochroleuca I61 assessed as inhibition of mycelial growth at 0.006 to 0.037 mg/ml measured every 24 hr intervals over 192 hr
Clonostachys rosea [42] = test: Toxicity against Bionectria ochroleuca assessed as inhibition of mycelial growth at 0.006 to 0.037 ug/ml measured every 24 hr intervals over 192 hr
Clonostachys rosea [43] = test: Toxicity against Bionectria ochroleuca I19 assessed as inhibition of mycelial growth at 0.006 to 0.037 mg/ml measured every 24 hr intervals over 192 hr
Clonostachys rosea [44] = test: Toxicity against Bionectria ochroleuca I62 assessed as inhibition of mycelial growth at 0.006 to 0.037 mg/ml measured every 24 hr intervals over 192 hr
Clonostachys rosea [45] = test: Toxicity against Bionectria ochroleuca I60 assessed as inhibition of mycelial growth at 0.006 to 0.037 mg/ml measured every 24 hr intervals over 192 hr
Clonostachys rosea [46] = test: Toxicity against Bionectria ochroleuca assessed as inhibition of conidial germination at 0.006 to 0.037 ug/ml measured every 24 hr intervals over 192 hr
Clonostachys rosea [47] = test: Toxicity against Bionectria ochroleuca I62 assessed as inhibition of conidial germination at 0.12 to 0.75 mg/ml measured every 24 hr intervals over 192 hr
Clonostachys rosea [48] = test: Toxicity against Bionectria ochroleuca I61 assessed as inhibition of conidial germination at 0.12 to 0.75 mg/ml measured every 24 hr intervals over 192 hr
Clonostachys rosea [49] = test: Toxicity against Bionectria ochroleuca I19 assessed as inhibition of conidial germination at 0.12 to 0.75 mg/ml measured every 24 hr intervals over 192 hr
Clonostachys rosea [50] = test: Toxicity against Bionectria ochroleuca I60 assessed as inhibition of conidial germination at 0.12 to 0.75 mg/ml measured every 24 hr intervals over 192 hr
Clonostachys rosea [51] = test: Toxicity against Bionectria ochroleuca assessed as inhibition of mycelial growth at 0.009 to 0.055 ug/ml
Clonostachys rosea [52] = test: Toxicity against Bionectria ochroleuca assessed as inhibition of conidial germination at 0.009 to 0.055 ug/ml

CC[C@H](C)[C@H]1O[C@]2(C=C[C@@H]1C)C[C@@H]1C[C@@H](C/C=C(\C)[C@@H](O[C@H]3C[C@H](OC)[C@@H](O[C@H]4C[C@H](OC)[C@@H](O)[C@H](C)O4)[C@H](C)O3)[C@@H](C)/C=C/C=C3\CO[C@@H]4[C@H](O)C(C)=C[C@@H](C(=O)O1)[C@]34O)O2.CO[C@H]1C[C@H](O[C@H]2[C@H](C)O[C@@H](O[C@@H]3/C(C)=C/C[C@@H]4C[C@@H](C[C@]5(C=C[C@H](C)[C@@H](C(C)C)O5)O4)OC(=O)[C@@H]4C=C(C)[C@@H](O)[C@H]5OC/C(=C\C=C\[C@@H]3C)[C@]54O)C[C@@H]2OC)O[C@@H](C)[C@@H]1O [ABAMECTIN]
growth inhibition (GI) (Clonostachys rosea [1]): 5.79%
growth inhibition (GI) (Clonostachys rosea [2]): 0.5%
growth inhibition (GI) (Clonostachys rosea [3]): 9.64%
growth inhibition (GI) (Clonostachys rosea [4]): 6.51%
inhibition (INH) (Clonostachys rosea [5]): 1%
growth inhibition (GI) (Clonostachys rosea [6]): 9.79%

O=C1C2CC=CCC2C(=O)N1SC(Cl)(Cl)Cl (centres undefined) [CAPTAN]
growth inhibition (GI) (Clonostachys rosea [7]): 82.2%
growth inhibition (GI) (Clonostachys rosea [8]): 86.2%
growth inhibition (GI) (Clonostachys rosea [9]): 75%
growth inhibition (GI) (Clonostachys rosea [10]): 81.8%
inhibition (INH) (Clonostachys rosea [11]): 61%
growth inhibition (GI) (Clonostachys rosea [12]): 81.8%

CC1(C)C(C(=O)OC(C#N)c2cccc(Oc3ccccc3)c2)C1(C)C (centres undefined) [FENPROPATHRIN]
growth inhibition (GI) (Clonostachys rosea [13]): 7.16%
growth inhibition (GI) (Clonostachys rosea [14]): 8.18%
growth inhibition (GI) (Clonostachys rosea [15]): 1%
inhibition (INH) (Clonostachys rosea [16]): 10.1%
growth inhibition (GI) (Clonostachys rosea [17]): 3.93%
inhibition (INH) (Clonostachys rosea [18]): 10.7%
growth inhibition (GI) (Clonostachys rosea [19]): 10.77%
inhibition (INH) (Clonostachys rosea [20]): 6%
inhibition (INH) (Clonostachys rosea [21]): 12.7%
inhibition (INH) (Clonostachys rosea [22]): 9.9%

CCCCOC(=O)[C@@H](C)Oc1ccc(Oc2ccc(C(F)(F)F)cn2)cc1 [FLUAZIFOP-P-BUTYL]
inhibition (INH) (Clonostachys rosea [23]): 2.2%
growth inhibition (GI) (Clonostachys rosea [24]): 3.6%

O=C(O)CNCP(=O)(O)O [GLYPHOSATE]
growth inhibition (GI) (Clonostachys rosea [25]): 3.6%
inhibition (INH) (Clonostachys rosea [26]): 2.2%

CC(C)NC(=O)N1CC(=O)N(c2cc(Cl)cc(Cl)c2)C1=O [IPRODIONE]
growth inhibition (GI) (Clonostachys rosea [27]): 79%
inhibition (INH) (Clonostachys rosea [28]): 55%

CCOC(=O)CC(SP(=S)(OC)OC)C(=O)OCC (centres undefined) [MALATHION]
growth inhibition (GI) (Clonostachys rosea [29]): 36.87%
inhibition (INH) (Clonostachys rosea [30]): 14.9%
growth inhibition (GI) (Clonostachys rosea [31]): 34.59%
growth inhibition (GI) (Clonostachys rosea [32]): 29.32%
growth inhibition (GI) (Clonostachys rosea [33]): 22%
inhibition (INH) (Clonostachys rosea [34]): 12.7%
growth inhibition (GI) (Clonostachys rosea [35]): 32.67%
inhibition (INH) (Clonostachys rosea [36]): 10%

CC12CC1(C)C(=O)N(c1cc(Cl)cc(Cl)c1)C2=O (centres undefined) [PROCYMIDONE]
inhibition (INH) (Clonostachys rosea [37]): 59%
growth inhibition (GI) (Clonostachys rosea [38]): 66%

CCc1cccc(C)c1N(C(=O)CCl)[C@@H](C)COC [S-METOLACHLOR]
inhibition (INH) (Clonostachys rosea [39]): 2.2%
growth inhibition (GI) (Clonostachys rosea [40]): 3.6%

CN1COCN(Cc2cnc(Cl)s2)/C1=N\[N+](=O)[O-] [THIAMETHOXAM]
growth inhibition (GI) (Clonostachys rosea [41]): 0.51%
growth inhibition (GI) (Clonostachys rosea [42]): 0.1%
growth inhibition (GI) (Clonostachys rosea [43]): 0.36%
growth inhibition (GI) (Clonostachys rosea [44]): 1.82%
growth inhibition (GI) (Clonostachys rosea [45]): 2.65%
inhibition (INH) (Clonostachys rosea [46]): 1%

COC(=O)NC(=S)Nc1ccccc1NC(=S)NC(=O)OC [THIOPHANATE METHYL]
inhibition (INH) (Clonostachys rosea [47]): 69.3%
inhibition (INH) (Clonostachys rosea [37]): 31%
inhibition (INH) (Clonostachys rosea [48]): 39.4%
inhibition (INH) (Clonostachys rosea [49]): 40.8%
inhibition (INH) (Clonostachys rosea [50]): 37.4%
growth inhibition (GI) (Clonostachys rosea [38]): 90%

CCCN(CCC)c1c([N+](=O)[O-])cc(C(F)(F)F)cc1[N+](=O)[O-] [TRIFLURALIN]
growth inhibition (GI) (Clonostachys rosea [51]): 3.6%
inhibition (INH) (Clonostachys rosea [52]): 2.2%
